Patent US7507739B2, “6-[(substituted)phenyl]triazolopyrimidines as anticancer agents” (Wyeth, priority 2003, dated 2009)

Columns and labels:
KB-V1 cells = assay: MTS cytotoxicity test with KB-V1 cells (very high P-glycoprotein); type: cell-based, human; conditions: for Ratio VI/KB: IC50 on KB VI cells/IC50 on KB cells; for IC50: Homo sapiens, KB-V1 cells, MTS
Text: (§1) Human cancer cell lines, unless otherwise noted, are obtained from the American Type Culture Collection (Rockville, Md.). The following drug-sensitive parental cell lines, and their derived drug-resistant counterparts, are obtained from the originators as listed: (a) S1 (parental line from a subclone of human colon carcinoma line LS174T) and derived S1-M1-3.2 (herein called S1-M1) which expresses the MXR drug transporter protein, are provided by Dr. L. Greenberger, Wyeth Research (Rabindran, S. K., He, H., Singh, M., Brown, E., Collins, K. I., Annable, T., and Greenberger, L. M. Reversal of a novel multidrug resistance mechanism in human colon carcinoma cells by fumitremorgin C. Cancer Res., 58:5850-5858,1998); (b) parental HL-60 human promyelocytic leukemia line and derived HL-60/ADR, which expresses the MRP1 drug transporter protein, are provided by Dr. M. Center, University of Kansas (McGrath, T., and Center, M. S. Adriamycin resistance in HL60 cells in the absence of detectable P-glycoprotein. Biochem. Biophys. […] J. Biol. Chem., 261: 7762-7770,1986) via Dr. L. Greenberger, Wyeth Research.
(§2) The assay, which is sold in kit form by Promega (Madison, Wis.; CellTiter 96 AQueous Non-Radioactive Cell Proliferation Assay), is based on the conversion by viable cells, but not by dead cells, of the tetrazolium salt, MTS (3-(4,5-dimethylthiazol-2-yl)-5-(3-carboxymethoxyphenyl)-2-(4-sulphophenyl)-2H-tetrazolium, inner salt), into a water-soluble colored formazan which is detected by spectrophotometry. Compounds are tested at nine concentrations, in order to determine IC50 values. For the test procedure, cells are harvested by trypsinization (or, in the case of non-adherent cells, by simple resuspension), washed, counted and distributed to wells of 96-well flat-bottom microtiter plates at 1000 cells per well in 200 μL of medium. In addition, one row of wells on a separate plate received cells as above (“time 0” plate). All plates are incubated at 37° in humidified 5% CO2 in air for about 24 hr.
(§3) On day 2, compounds for test are diluted and added to wells. Compounds are dissolved in DMSO at 10 mg/mL. For each compound, nine serial 2-fold dilutions are prepared in DMSO. Ten μL of each dilution in DMSO is transferred to 100 μL of medium, mixed well, and then 5 μL of this dilution is transferred in quadruplicate to wells containing cells. […] Plates are returned to the incubator for three days. At the time of drug addition to the experimental plates, the MTS assay is run on the “time 0” plate. This produced the “time 0 MTS value” which is related to the number of viable cells per well at the time of drug addition.
(§4) After three days of culture with test compounds (day 5 overall), the MTS assay is done on all wells of the experimental plates. The absorbance values of the quadruplicate sample wells are averaged and divided by the average of the “time 0” values. […] The nine values for each compound are plotted against concentration, and the concentration that produced a relative color yield half way between the maximum and minimum is taken as the IC50 value.
(§5) The KB lines express different amounts of the P-glycoprotein (MDR1) membrane pump which produces resistance to the action of many cytotoxic compounds, including paclitaxel and vincristine. The parental KB line expresses no P-glycoprotein, KB-8-5 expresses moderate levels of the protein, and KB-V1 expresses very high levels.

S1 cells = assay: MTS cytotoxicity test with S1 cells; type: cell-based; conditions: Homo sapiens
Text: as §1, §2, §3, §4
(§6) S1-M1 cells overexpress the MXR transporter which mediates resistance to some chemotherapeutics (Gottesman, M. M., Fojo, T., and Bates, S. E. Miltidrug resistance in cancer: role of ATP-dependent transporters. Nature Rev. Cancer, 2: 48-58, 2002). The IC50 values of representative examples of this invention, as well as reference compounds, on S1-M1 are compared to values on the sensitive parental S1 line.

HL-60 cells = assay: MTS cytotoxicity test with HL-60 cells; type: cell-based; conditions: Homo sapiens; HL-60 cells, MTS; read-out: IC50 HL-60
Text: as §1, §2, §3, §4
(§7) HL-60/ADR cells overexpress the multidrug resistance protein MRP1 which mediates resistance to some chemotherapeutics (Gottesman, M. M., Fojo, T., and Bates, S. E. Multidrug resistance in cancer: role of ATP-dependent transporters. Nature Rev. Cancer, 2: 48-58, 2002). The IC50 values of representative examples of this invention, as well as reference compounds, on HL-60/ADR are compared to values on the sensitive parental HL-60 line.

KB cells = assay: MTS cytotoxicity test with KB cells; type: cell-based; conditions: Homo sapiens; KB cells, MTS; read-out: IC50 KB
Text: as §1, §2, §3, §4, §5

HL-60/ADR cells = assay: MTS cytotoxicity test with HL-60/ADR cells (MRP1); type: cell-based, human; conditions: for Ratio: IC50 on HL-60/ADR cells/IC50 on HL-60 cells
Text: as §1, §2, §3, §4, §7

KB-8-5 cells = assay: MTS cytotoxicity test with KB-8-5 cells (moderate P-glycoprotein); type: cell-based, human; conditions: for IC50: Homo sapiens, KB-8-5 cells, MTS, read-out: IC50 KB 8.5; for Ratio 8.5/KB: IC50 on KB 8.5 cells/IC50 on KB cells
Text: as §1, §2, §3, §4, §5

S1-M1 cells = assay: MTS cytotoxicity test with S1-M1 cells (MXR); type: cell-based, human; conditions: for IC50: Homo sapiens, S1-M1 cells, MTS, read-out: IC50 S1-M1; for Ratio: IC50 on S1-M1 cells/IC50 on S1 cells
Text: as §1, §2, §3, §4, §6

tubulin heterodimer [1] = assay: Competitive binding test, [3H]vinblastine; design: species or system bovine; conditions: [3H]vinblastine 100 nM
Protocol: (§8) Medium is RPMI-1640 with L-glutamine, supplemented with 10% heat-inactivated fetal calf serum, 100 units/ml penicillin, and 100 μg/ml streptomycin (Gibco, Grand Island, N.Y.). Microtubule-associated protein (MAP)-rich tubulin, containing about 70% tubulin and 30% MAPs (#ML113), and highly purified tubulin (>99% pure, #TL238), both from bovine brain, are obtained from Cytoskeleton, Inc., Denver, Colo. PEM buffer (80 mM piperazine-N,N′-bis[2-ethanesulfonic acid], pH 6.9, 1 mM ethylene glycol-bis(β-aminoethyl ether)-N,N,N′,N′-tetraacetic acid, 1 mM magnesium chloride) and guanosine 5′-triphosphate (GTP) are also obtained from Cytoskeleton. [3H]paclitaxel, specific activity 14.7 Ci/mmol, is purchased from Moravek Biochemicals (Brea, Calif.). [^3H]vinblastine, specific activity 9.60 Ci/mmol and MicroSpin G-50 columns are obtained from Amersham Biosciences (Piscataway, N.J.). […] Other reagents are obtained from Sigma (St. Louis, Mo.).
(§9) The binding of examples of this invention to highly purified tubulin is studied by competitive inhibition methods. […] To study possible competition at the taxane site, on the other hand, polymerized tubulin (microtubules) is used because paclitaxel binds preferentially to microtubules.
(§10) Highly purified tubulin is dissolved in PEM buffer without GTP and used at a final concentration of 1.0 to 1.3 mg/ml (10 to 13 μM). […] These solutions are incubated at 24° for 1 hr and then applied to MicroSpin G-50 columns which are centrifuged for 2 min at 3000 rpm in an Eppendorf 5415C microfuge. An aliquot of each column effluent (containing tubulin and bound radioligand) is mixed with scintillation fluid and counted in a liquid scintillation spectrometer. […] The ability of the competitor to inhibit the binding of the radioligand is expressed as a percentage of control binding in the absence of any competitor.

microtubules = assay: Competitive binding test, [3H]paclitaxel; design: species or system bovine; conditions: [3H]paclitaxel 2.1 μM, competitor 20 μM (5 μM for unlabeled paclitaxel)
Protocol: as §8, §9
For competition with [^3H]paclitaxel, highly purified tubulin is dissolved in PEM buffer containing 0.75 M glutamate and 25 μM dideoxy-GTP; final protein concentration is 0.25 to 0.35 mg/mL (2.5 to 3.5 μM). These conditions foster the rapid formation of short, stable microtubule polymers (Hamel, E., del Campo, A. A., and Lin, C. M. Stability of tubulin polymers formed with dideoxyguanosine nucleotides in the presence and absence of microtubule-associated proteins. J. Biol. Chem., 259: 2501-2508, 1984). This solution is incubated for 30 min at 37° to allow microtubules to form. Then [^3H]paclitaxel (final concentration of 2.1 μM, 1.2 Ci/mmol) and competitor (final concentration of 20 μM, except 5 μM for unlabeled paclitaxel) are added to aliquots of the polymerized tubulin solution and incubation at 37° is continued for another 30 min. […] The reactions are then centrifuged at top speed in an Eppendorf 5415C microfuge for 20 min at room temperature in order to pellet the microtubule protein. Triplicate aliquots of each supernatant are mixed with scintillation fluid and counted in a liquid scintillation spectrometer. From the amount of radioactivity in the supernatants and the measured total starting radioactivity, the amount of [^3H]paclitaxel bound to pelleted microtubule protein is calculated. The ability of each competitor to inhibit radioligand binding to pelleted protein is expressed as a percent of controls without any competitor.

MAP-rich tubulin = assay: Tubulin polymerization test with MAP-rich tubulin; type: biochemical, bovine; conditions: 0.3 μM compound, 20 min, fold enhancement over control
Method in brief: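 Bovine brain MAP-rich tubulin (1.3 mg/mL) in PEM buffer pH 6.9 with 1 mM GTP, compounds at 0.3 μM final (0.3% DMSO), 24° for 60 min. Turbidity read at 340 nm each minute, baseline-subtracted; mean A340 at 20 min divided by solvent control gives fold enhancement.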

COLO 205 cells = assay: MTS cytotoxicity test with COLO 205 cells; type: cell-based, human; conditions: 3 days
Method in brief: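 COLO 205 human colon carcinoma cells, 1000 per well, exposed 3 days at 37° C to nine 2-fold dilutions, typical final top concentration 5 μM. MTS absorbance normalized to time-0 plate; IC50 is concentration giving colour yield midway between untreated and fully killed controls.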

tubulin heterodimer [2] = assay: Competitive binding test, [3H]colchicine; design: species or system bovine; conditions: [3H]colchicine 50 nM
Protocol: as §8, §9, §10

pure tubulin = assay: Tubulin polymerization test with pure tubulin without GTP; type: biochemical, bovine; conditions: no GTP
Protocol: as §8
Two variations of this procedure are done, one using MAP-rich tubulin and one using pure tubulin.
The procedure with pure tubulin is similar except for the following changes. […] The supernatant after centrifugation is dispensed to a 96-well plate already containing compounds. Each compound is tested in duplicate at six serial 3-fold dilutions starting at 24.3 μM. The plate reader is thermostated at 35°.

| Structure (SMILES) | Ratio VI/KB (KB-V1 cells) | IC50 (S1 cells) | IC50 (HL-60 cells) | IC50 (KB cells) | Ratio (HL-60/ADR cells) | IC50 (KB-8-5 cells) | Ratio 8.5/KB (KB-8-5 cells) | IC50 (S1-M1 cells) | Ratio (S1-M1 cells) | IC50 (KB-V1 cells) | also measured |
| --- | --- | --- | --- | --- | --- | --- | --- | --- | --- | --- | --- |
| O=C1c2c(O)ccc(O)c2C(=O)c2c(NCCNCCO)ccc(NCCNCCO)c21 [Mitoxantrone, reference compound] | 77 | 10 nM | 9.5 nM | 25 nM | 17 | 27 nM | 1.1 | > 3000 nM | >300 |  | Ratio (S1-M1 cells; listed as mitoxantrone): > 300 |
| COc1cccc2c1C(=O)c1c(O)c3c(c(O)c1C2=O)C[C@@](O)(C(=O)CO)C[C@@H]3O[C@H]1C[C@H](N)[C@H](O)[C@H](C)O1 [Doxorubicin, reference compound] | >130 | 34 nM | 23 nM | 23 nM | 93 | 70 nM | 3.0 |  | 74 | > 3000 nM | Ratio VI/KB (KB-V1 cells; listed as doxorubicin): > 130 |
| C[C@H](Nc1c(-c2c(F)cc(OCCCN3CCOCC3)cc2F)c(Cl)nc2ncnn12)C(F)(F)F.Cl [Example 11a, 5-Chloro-6-[2,6-difluoro-4-(3-morpholin-4-ylpropoxy)phenyl]-N-[(1S)-2,2,2-trifluoro-1-methylethyl][1,2,4]triazolo[1,5-a]pyrimidin-7-amine Hydrogen chloride] |  |  |  |  |  |  |  |  |  |  | [3H]Vinblastine binding, percent of control without competitor, Mean (tubulin heterodimer [1]): 12%; [3H]Paclitaxel binding, percent of control without competitor, Mean (microtubules): 107%; A340 Compound/A340 Control (MAP-rich tubulin): 6.8; IC50 (COLO 205 cells): 51 nM; [3H]Colchicine binding, percent of control without competitor, Mean (tubulin heterodimer [2]): 121%; absorbance increase, polymerization of pure tubulin (pure tubulin; 2.7 μM): no effect; absorbance increase, polymerization of pure tubulin (pure tubulin; 8.1 μM): lower and less rapid increase; A340 at 0 min (pure tubulin; 24.3 μM): 0; A340 at 5 min (pure tubulin; 24.3 μM): 0.24; A340 at 10 min (pure tubulin; 24.3 μM): 0.24; A340 at 15 min (pure tubulin; 24.3 μM): 0.23; A340 at 20 min (pure tubulin; 24.3 μM): 0.22; absorbance increase, polymerization of pure tubulin (pure tubulin; 24.3 μM, first 5 min): rapid increase in absorbance |
| CC[C@@]1(O)C(=O)OCc2c1cc1n(c2=O)Cc2cc3ccccc3nc2-1 [Camptothecin, reference compound] | 1.6 | 8.9 nM | 12 nM | 24 nM | 1.4 | 33 nM | 1.4 | 17 nM | 1.9 | 39 nM | IC50 (HL-60/ADR cells; Homo sapiens, HL60/ADR, HL-60/ADR cells, MTS, read-out: IC50 HL-60/ADR): 17 nM |
